# Structures can show the parent of a compound that is named as a salt. Where two headings read alike, the source gives them in different places.
# Tests used:
# human whole blood = assay: Ex vivo assay testing inhibitory activity in human whole blood after stimulation with calcium ionophore (LTB4 ELISA); assay type: cell-based; conditions: Ionomycin 20 μM, read-out: hWBIC50;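 further: heparinized human blood preincubated 15 min at 37 °C with compound, then ionomycin-stimulated for 30 min, LTB4 in plasma supernatant quantified by ELISA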
# Description: (2) Ex vivo assay testing inhibitory activity in human whole blood after stimulation with calcium ionophor.
# Human blood was collected in heparin-containing Vacutainer tubes. […] Then 4 μl of a series of compound dilutions (in DMSO) were added, followed by a 15 min incubation at 37° C. with gentle shaking. After that, blood samples were stimulated by adding Ionomycin (Calbiochem) to a final concentration of 20 μM. After another incubation at 37° C. for 30 min, samples were centrifuged for 5 min at 1800 g and 4° C. Supernatants were taken and LTB4 concentrations were determined using a commercially available enzyme-linked immunosobentassay (R&D Systems, Minneapolis, Minn.) according to the manufacturer's instructions.
# human LTA4 hydrolase = biological target: T1, human LTA4 hydrolase (Homo sapiens, UniProt P09960); assay: In vitro assay testing inhibitory activity against purified recombinant human LTA4 hydrolase (LTB4 formed, LC-MS/MS); assay type: biochemical;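 further: 200 nM enzyme preincubated 10 min at room temperature with serial inhibitor dilutions in pH 8.0 Tris buffer with BSA and 10% DMSO, then 2 µM LTA4 added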
# T1 construct: A human LTA4 hydrolase full-length cDNA clone (NM 000895) was purchased; His tag (6xHis of vector pDEST17); made in house; host or cells: Escherichia coli BL21-AI
# T1 sequence (P09960 1-611): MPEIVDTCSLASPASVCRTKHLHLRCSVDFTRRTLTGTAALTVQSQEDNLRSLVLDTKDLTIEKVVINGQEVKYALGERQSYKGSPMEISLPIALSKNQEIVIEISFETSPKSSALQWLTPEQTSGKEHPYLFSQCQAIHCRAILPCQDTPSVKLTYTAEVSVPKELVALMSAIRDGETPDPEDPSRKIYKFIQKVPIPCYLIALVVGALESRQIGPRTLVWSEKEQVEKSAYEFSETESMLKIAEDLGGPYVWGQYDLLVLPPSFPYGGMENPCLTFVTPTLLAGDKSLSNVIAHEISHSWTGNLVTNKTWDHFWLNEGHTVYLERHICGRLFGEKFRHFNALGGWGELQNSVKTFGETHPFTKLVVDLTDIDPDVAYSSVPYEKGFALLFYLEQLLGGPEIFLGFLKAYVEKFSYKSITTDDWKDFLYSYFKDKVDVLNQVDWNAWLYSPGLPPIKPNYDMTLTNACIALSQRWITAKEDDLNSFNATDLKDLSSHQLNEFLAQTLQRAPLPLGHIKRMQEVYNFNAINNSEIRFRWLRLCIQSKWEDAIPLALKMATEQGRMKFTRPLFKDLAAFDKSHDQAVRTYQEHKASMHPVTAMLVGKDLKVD
# Excerpt: (1) In vitro assay testing inhibitory activity against purified recombinant human LTA4 hydroase. […] The gene was amplified by polymerase chain reaction and transferred via pDONR201 into the bacterial expression vector pDEST17 by recombination (both plasmids from Invitrogen, Carlsbad, Calif.). The resulting construct was transformed into Escherichia coli BL21-AI (Invitrogen), and expression was induced by chemical induction with arabinose. The recombinant enzyme was purified by chromatography on an FPLC system (Amersham Biosciences, Uppsala, Sweden) using immobilized metal affinity chromatography (Ni-NTA Superflow, Qiagen, Hilden, Germany) and anion exchange chromatography (MonoQ HR 10/10, Amersham Biosciences).
# The compounds of the invention were incubated in a series of dilutions with 200 nM of recombinant enzyme in assay buffer (100 mM Tris-HCl, 100 mM NaCl, 5 mg/ml fatty-acid free BSA, 10% DMSO, pH 8.0) for 10 min at room temperature to allow binding between LTA4 hydrolase and the inhibitors. LTA4 was prepared by alkaline hydrolysis of LTA4 methyl ester (Biomol, Plymouth Meeting, Pa., or Cayman Chemicals, Ann Arbor, Mich.). A solution of 10 μg of the ester was dried under a nitrogen stream and redissolved in 60 μl of a solution of 80% acetone and 20% 0.25 M NaOH. After incubation for 40 min at room temperature the resulting approximately 500 μM tock of LTA4 was kept at −80° C. for no more than a few days prior to use.
# Immediately before the assay, LTA4 was diluted to a concentration of 10 μM in assay buffer (without DMSO) and added to the reaction mixture to a final concentration of 2 μM to initiate the enzyme reaction. […] The samples were then kept at 4° C. overnight to complete protein precipitation and centrifuged for 15 min at 1800 g.
# [1] = system: ionophore-induced LTB4 production; conditions: oral administration; cited from earlier work
# primate model = conditions: eight weeks of treatment; cited from earlier work
# [2] = system: ionophore-induced LTB4 production; conditions: oral administration; cited from earlier work; remark: listed apart in the source
# [3] = recombinant human LTA4 hydrolase 200 nM, LTA4 2 μM, read-out: AvgIC50
IC50 (human whole blood) [µM],IC50 (human LTA4 hydrolase; [3]) [µM],Structure (SMILES),other results
< 5,< 5,"FC(F)(F)c1ccc(Oc2ccc(OC[C@H]3CCCCN3)cc2)cc1 [Example 55, (R)-2-[4-(4-Trifluoromethyl-phenoxy)-phenoxymethyl]-piperidine hydrochloride]",
< 5,< 5,"Clc1ccc(Oc2ccc(OC[C@@H]3CCCCN3)cc2)cc1 [Example 56, (S)-2-[4-(4-Chloro-phenoxy)-phenoxymethyl]-piperidine hydrochloride]",
< 5,< 5,"Fc1ccc(Oc2ccc(OC[C@@H]3CCCCN3)cc2)cc1 [Example 57, (S)-2-[4-(4-Fluoro-phenoxy)-phenoxymethyl]-piperidine hydrochloride]",
< 5,< 5,"COC(=O)CCCN1CCCC[C@H]1COc1ccc(Oc2ccc(Cl)cc2)cc1 [Example 60, 4-{(S)-2-[4-(4-Chloro-phenoxy)-phenoxymethyl]-piperidin-1-yl}-butyric acid methyl ester]",
< 5,< 5,"Clc1ccc(Cc2ccc(OC[C@@H]3CCCN3)cc2)cc1 [Example 64, (S)-2-[4-(4-Chloro-benzyl)-phenoxymethyl]-pyrrolidine hydrochloride]",
5 to 20,< 5,"O=C(O)CCC[N+]1([O-])CCC[C@H]1COc1ccc(Oc2ccc(Cl)cc2)cc1 (stereo partly drawn) [Example 70, 4-{(S)-2-[4-(4-Chloro-phenoxy)-phenoxymethyl]-1-hydroxy-pyrrolidin-1-yl}-butyric acid]",
< 5,< 5,"c1cncc(-c2ccc(Oc3ccc(OC[C@H]4CCCN4)cc3)cc2)c1 [Example 87, 3-{4-[4-((R)-1-Pyrrolidin-2-ylmethoxy)-phenoxy]-phenyl}-pyridine hydrochloride salt]",
< 5,< 5,"O=C(O)CCCN1CCC[C@@H]1COc1ccc(Oc2ccc(-c3cnco3)cc2)cc1 [Example 88, 4-{(R)-2-[4-(4-Oxazol-5-yl-phenoxy)-phenoxymethyl]-pyrrolidin-1-yl}-butyric acid]",
< 5,< 5,"c1ccc(COc2ccc(OC[C@H]3CCCN3)cc2)cc1 [Example 90, (R)-2-(4-Benzyloxy-phenoxymethyl)-pyrrolidine hydrogen chloride salt]",
< 5,< 5,"c1ccc2sc(Oc3ccc(OC[C@H]4CCCN4)cc3)nc2c1 [Example 100, (R)-2-[4-(Benzothiazol-2-yloxy)-phenoxymethyl]-pyrrolidine-Hydrogen chloride salt]",
< 5,< 5,"c1ccc2sc(Cc3ccc(OC[C@H]4CCCN4)cc3)nc2c1 [Example 104, 2-[4-((R)-1-Pyrrolidin-2-ylmethoxy)-benzyl]-benzothiazole-hydrogen chloride salt]",
< 5,< 5,"Brc1ccc(Cc2ccc(OC[C@H]3CCCN3)cc2)cc1 [Example 105, (R)-2-[4-(4-Bromo-benzyl)-phenoxymethyl]-pyrrolidine hydrogen chloride salt]",
< 5,< 5,"Ic1ccc(Cc2ccc(OC[C@H]3CCCN3)cc2)cc1 [Example 106, (R)-2-[4-(4-Iodo-benzyl)-phenoxymethyl]-pyrrolidine Hydrogen chloride salt]",
< 5,< 5,"c1csc(-c2ccc(Cc3ccc(OC[C@H]4CCCN4)cc3)cc2)c1 [Example 107, (R)-2-[4-(2-thiophen-benzyl)-phenoxymethyl]-pyrrolidine hydrogen chloride salt]",
< 5,< 5,"c1cc(-c2ccc(Cc3ccc(OC[C@H]4CCCN4)cc3)cc2)co1 [Example 108, (R)-2-[4-(3-Furan-benzyl)-phenoxymethyl]-pyrrolidine hydrogen chloride salt]",
< 5,< 5,"c1coc(-c2ccc(Cc3ccc(OC[C@H]4CCCN4)cc3)cc2)c1 [Example 109, (R)-2-[4-(2-Furan-benzyl)-phenoxymethyl]-pyrrolidine hydrogen chloride salt]",
5 to 20,< 5,"Cc1ccc(-c2ccc(Cc3ccc(OC[C@H]4CCCN4)cc3)cc2)s1 [Example 110, (R)-2-{4-[4-(5-methyl-thiophen-2-yl)-benzyl]-phenoxymethyl}-pyrrolidine hydrogen chloroide salt]",
< 5,< 5,"Clc1ccc(-c2ccc(Cc3ccc(OC[C@H]4CCCN4)cc3)cc2)s1 [Example 111, (R)-2-{4-[4-(5-chloro-thiophen-2-yl)-benzyl]-phenoxymethyl}-pyrrolidine hydrogen chloroide salt]",
< 5,5 to 20,"c1cc(-c2ccc(Oc3ccc(OC[C@H]4CCCN4)cc3)cc2)cs1 [Example 130, (R)-2-[4-(4-Thiophen-3-yl-phenoxy)-phenoxymethyl]-pyrrolidine-1-hydrogen chloride salt]",
< 5,5 to 20,"c1cnn(-c2ccc(Oc3ccc(OC[C@H]4CCCN4)cc3)cc2)c1 [Example 133, 1-{4-[4-((R)-1-Pyrrolidin-2-ylmethoxy)-phenoxy]-phenyl}-1H-pyrazole, hydrogen chloride salt]",
< 5,5 to 20,"O=C(O)CCCN1CCC[C@@H]1COc1ccc(Oc2ccc(-n3cccn3)cc2)cc1 [Example 134, 4-{(R)-2-[4-(4-Pyrazol-1-yl-phenoxy)-phenoxymethyl]-pyrrolidin-1-yl}-butyric acid]",
5 to 20,5 to 20,"c1ccc(CCc2ccc(OC[C@H]3CCCN3)cc2)cc1 [Example 135, (R)-2-(4-Phenethyl-phenoxymethyl)-pyrrolidine]",
< 5,< 5,"c1csc(-c2ccc(Oc3ccc(OC[C@H]4CCCN4)cc3)cc2)n1 [Example 146, 2-{4-[4-((R)-1-Pyrrolidin-2-ylmethoxy)-phenoxy]-phenyl}-thiazole hydrochloride salt]",
< 5,< 5,"c1ccc(-c2ccc(Cc3ccc(OC[C@H]4CCCN4)cc3)s2)cc1 [Example 159, (R)-2-[4-(5-Phenyl-thiophen-2-ylmethyl)-phenoxymethyl]-pyrrolidine hydrochloride salt]",
< 5,< 5,"O=C(O)CCCN1CCC[C@H]1COc1ccc(Cc2ccc(-c3ccsc3)cc2)cc1 [Example 169, 4-{(S)-2-[4-(4-Thiophen-3-yl-benzyl)-phenoxymethyl]-pyrrolidin-1-yl}-butyric acid sodium salt]",
,,CN(CCCOc1ccc(Cc2ccccc2)cc1)CCC(=O)O.Cl [SC57461],inhibition of ionophore-induced LTB4 production in rat peritoneum in vivo [1]: inhibition of ionophore-induced LTB4 production; colitis symptoms in a primate model (primate model): significantly improved colitis symptoms; inhibition of ionophore-induced LTB4 production in mouse blood ex vivo [2]: inhibition of ionophore-induced LTB4 production

Structure (SMILES),IC50 (human whole blood) [µM],IC50 (human LTA4 hydrolase; [3]) [µM],other results
"c1ccc(-c2ccc(Oc3ccc(OC[C@H]4CCCCN4)cc3)cc2)cc1 [Example 54, (R)-2-[4-(Biphenyl-4-yloxy)-phenoxymethyl]-piperidine hydrochloride]",< 5,,IC50 (human LTA4 hydrolase): < 5 µM
"O=C(O)CCCN1CCCC[C@H]1COc1ccc(Oc2ccc(Cl)cc2)cc1 [Example 61, 4-{(S)-2-[4-(4-Chloro-phenoxy)-phenoxymethyl]-piperidin-1-yl}-butyric acid hydrochloride]",< 5,,IC50 (human LTA4 hydrolase): < 5 µM
"O=C(O)CCCN1CCC[C@@H]1COc1ccc(Cc2ccc(-c3ccsc3)cc2)cc1 [Example 112, 4-{(R)-2-[4-(4-Thiophen-3-yl-benzyl)-phenoxymethyl]-pyrrolidin-1-yl}-butyric acid hydrogen chloride salt]",< 5,< 5,
"O=C(O)CCCN1CCC[C@@H]1COc1ccc(Cc2ccc(-c3cccs3)cc2)cc1 [Example 113, 4-{(R)-2-[4-(4-Thiophen-2-yl-benzyl)-phenoxymethyl]-pyrrolidin-1-yl}-butyric acid hydrogen chloride salt]",< 5,< 5,

# From US20070078263A1, “BIARYL SUBSTITUTED HETEROCYCLE INHIBITORS OF LTA4H FOR TREATING INFLAMMATION” (deCODE Chemistry, Inc., priority 2005, published 2007)
